Values belong to the compound of their own block, whether it stands above or below them.
Experiments:
[1] = Comparative active ester reactivity study with HOPO nucleophile; conditions: 1,2-HOPO 1 eq., 22±2° C.
Procedure: (§1) General Experimental Protocol for Comparative Active Ester Reactivity Study with HOPO or HOA Nucleophiles
(§2) To a 4 mL scintillation vial containing Compound A-E (in respective experiments; 1 eq.) was added a stir bar followed by 150 μL of HPLC grade acetonitrile. In another 4 mL scintillation vial containing a respective nucleophile (1 eq.) was added 280 μL HPLC grade water. The solutions were combined and allowed to stir at room temperature (22±2° C.) for 4 hours. Timed aliquots at time (T)=15, 30, 60, 120 and 240 minutes were taken and analyzed by HPLC-MS using elution method 1 (Table 1).

[2] = Comparative active ester reactivity study with HOA nucleophile (benzhydroxamic acid); conditions: Benzhydroxamic Acid 1 eq., 22±2° C.
Procedure: as §1, §2

[3] = Comparative active ester reactivity study with HOA nucleophile (N-hydroxy-N-methylbenzamide); conditions: N-Hydroxy-N-methylbenzamide 1 eq., 22±2° C.
Procedure: as §1, §2

[4] = Nucleophilic reactivity study with L-Lysine; conditions: L-Lysine 5 equiv, 22±2° C.
Procedure: General Experimental Protocol for Nucleophilic Reactivity Study with L-Lysine
To a 4 mL scintillation vial containing Compound A-E (in respective experiments; 1 eq.) was added a stir bar followed by 70 μL of HPLC grade acetonitrile. In another 4 mL scintillation vial containing L-Lysine monohydrochloride (5 eq.) was added 130 μL HPLC grade water followed by diisopropylethylamine (5 eq.). The solutions were combined and allowed to stir at room temperature (22±2° C.). Timed aliquots at time (T)=15, 30, 60 and 120 minutes were taken and analyzed by HPLC-MS using elution method 1 (Table 2).

pH stability study = assay type: physicochemical; conditions: 20° C.
Procedure: To a 4 mL scintillation vial containing Compound A-E (in respective experiments; 0.8 mg) was added 4 mL of either a pH 3, pH 5 pH 7 or pH 9 buffer to create a 0.2 mg/mL solution. 2 mL of this solution was added to a 2 mL HPLC vial and placed in the auto sampler of an HPLC-MS at 20° C. Timed aliquots at time (T)=15, 30, 60, 120, 240 and 480 minutes were taken and analyzed by HPLC-MS using elution method 1 (Table 3). […]
pH 3 Buffer: Citric acid/Na2HPO4 (79.45 mL 0.1 M-citric acid and 20.55 mL 0.2-Na2HPO4) pH 5 Buffer: Citric acid/Na2HPO4 (48.50 mL 0.1 M-citric acid and 51.50 mL 0.2-Na2HPO4) pH 7 Buffer: Citric acid/Na2HPO4 (17.65 mL 0.1 M-citric acid and 82.35 mL 0.2-Na2HPO4) pH 9 Buffer: Sodium Carbonate/Sodium Bicarbonate (10 mL 0.1 M-Na2CO3 and 90 mL 0.1-NaHCO3)

[5] = Temperature stability study in H2O; assay type: physicochemical
Procedure: 20° C.: To a 4 mL scintillation vial containing Compound A-E (in respective experiments; 0.8 mg) was added 4 mL of HPLC grade water to create a 0.2 mg/mL solution. 2 mL of this solution was added to a 2 mL HPLC vial and placed in the auto sampler of an HPLC-MS at 20° C. Timed aliquots at time (T)=15, 30, 60, 120, 240 and 480 minutes were taken and analyzed by HPLC-MS using elution method 1 (Table 4).
50° C.: To a 4 mL scintillation vial containing Compound A-E (in respective experiments; 0.8 mg) was added a stir bar followed by 4 mL of HPLC grade water to create a 0.2 mg/mL solution. The vial was capped and allowed to stir in a 50° C. oil bath for 8 hours. Timed aliquots at time (T) =15, 30, 60, 120, 240 and 480 minutes were taken and analyzed by HPLC-MS using elution method 1 (Table 4).

DMSO stability study = assay type: physicochemical
Procedure: To a 4 mL scintillation vial containing Compound A-E (in respective experiments; 4 mg) was added a stir bar followed by 500 μL of anhydrous dimethyl sulfoxide and was allowed to stir at room temperature (22±2° C.) for 4 hours. Timed aliquots at time (T)=15, 30, 60, 120 and 240 minutes were taken, dissolved in water to achieve 2% DMSO composition and analyzed by HPLC-MS using elution method 1 (Table 5).

[6] = Stability of Compound J at pH = 2; assay type: physicochemical; conditions: pH 2, 20° C.
Procedure: To an HPLC vial was added a 0.2 mg/mL solution of Compound J dissolved in H2O (0.1% v/v TFA) at pH=2 and the stability was monitored by HPLC-MS at 20° C. over 16 hours. Timed aliquots at time (T)=0, 30, 60, 120, 180, 240, 480 and 960 minutes were taken and analyzed by HPLC-MS using elution method 4 at 214 nm (Table 9).

% Active Ester Remaining ([1]; 15 min): 98.85%
% Active Ester Remaining ([1]; 30 min): 96.23%
% Active Ester Remaining ([1]; 60 min): 90.85%
% Active Ester Remaining ([1]; 120 min): 84.98%
% Active Ester Remaining ([1]; 240 min): 69.55%
% Active Ester Remaining ([2]; 15 min): 81.80%
% Active Ester Remaining ([2]; 30 min): 69.62%
% Active Ester Remaining ([2]; 60 min): 56.57%
% Active Ester Remaining ([2]; 120 min): 42.81%
% Active Ester Remaining ([2]; 240 min): 28.60%
% Active Ester Remaining ([3]; 15 min): 91.32%
% Active Ester Remaining ([3]; 30 min): 84.96%
% Active Ester Remaining ([3]; 60 min): 73.90%
% Active Ester Remaining ([3]; 120 min): 56.72%
% Active Ester Remaining ([3]; 240 min): 35.97%
% Active Ester Remaining ([4]; 15 min): 0.20%
% Active Ester Remaining ([4]; 30 min): 0%
% Remaining (pH stability study; pH 3 buffer, 15 min): 100%
% Remaining (pH stability study; pH 3 buffer, 30 min): 99.56%
% Remaining (pH stability study; pH 3 buffer, 60 min): 99.19%
% Remaining (pH stability study; pH 3 buffer, 120 min): 98.69%
% Remaining (pH stability study; pH 3 buffer, 240 min): 97.41%
% Remaining (pH stability study; pH 3 buffer, 480 min): 95.05%
% Remaining (pH stability study; pH 5 buffer, 15 min): 100%
% Remaining (pH stability study; pH 5 buffer, 30 min): 99.50%
% Remaining (pH stability study; pH 5 buffer, 60 min): 99.05%
% Remaining (pH stability study; pH 5 buffer, 120 min): 98.27%
% Remaining (pH stability study; pH 5 buffer, 240 min): 96.36%
% Remaining (pH stability study; pH 5 buffer, 480 min): 92.97%
% Remaining (pH stability study; pH 7 buffer, 15 min): 99.35%
% Remaining (pH stability study; pH 7 buffer, 30 min): 98.45%
% Remaining (pH stability study; pH 7 buffer, 60 min): 97.44%
% Remaining (pH stability study; pH 7 buffer, 120 min): 95.40%
% Remaining (pH stability study; pH 7 buffer, 240 min): 91.66%
% Remaining (pH stability study; pH 7 buffer, 480 min): 84.15%
% Remaining (pH stability study; pH 9 buffer, 15 min): 78.39%
% Remaining (pH stability study; pH 9 buffer, 30 min): 65.31%
% Remaining (pH stability study; pH 9 buffer, 60 min): 54.47%
% Remaining (pH stability study; pH 9 buffer, 120 min): 38.67%
% Remaining (pH stability study; pH 9 buffer, 240 min): 19.98%
% Remaining (pH stability study; pH 9 buffer, 480 min): 5.01%
% Remaining ([5]; 20° C., 15 min): 99.63%
% Remaining ([5]; 20° C., 30 min): 99.20%
% Remaining ([5]; 20° C., 60 min): 98.92%
% Remaining ([5]; 20° C., 120 min): 98.12%
% Remaining ([5]; 20° C., 240 min): 96.98%
% Remaining ([5]; 20° C., 480 min): 95.14%
% Remaining ([5]; 50° C., 15 min): 97.57%
% Remaining ([5]; 50° C., 30 min): 92.71%
% Remaining ([5]; 50° C., 60 min): 89.62%
% Remaining ([5]; 50° C., 120 min): 85.20%
% Remaining ([5]; 50° C., 240 min): 79.93%
% Remaining ([5]; 50° C., 480 min): 68.06%
% Active Ester Remaining in DMSO at 22 ± 2° C. (DMSO stability study; 15 min): 99.89%
% Active Ester Remaining in DMSO at 22 ± 2° C. (DMSO stability study; 30 min): 99.81%
% Active Ester Remaining in DMSO at 22 ± 2° C. (DMSO stability study; 60 min): 99.79%
% Active Ester Remaining in DMSO at 22 ± 2° C. (DMSO stability study; 120 min): 99.78%
% Active Ester Remaining in DMSO at 22 ± 2° C. (DMSO stability study; 240 min): 99.46%
Compound: O=C(CCc1cccnc1)Oc1c(F)cccc1F [Compound B, 2,6-Difluorophenyl-3-(pyridin-3-yl)propanoate]

% Active Ester Remaining ([1]; 15 min): 15.47%
% Active Ester Remaining ([1]; 30 min): 12.28%
% Active Ester Remaining ([1]; 60 min): 11.06%
% Active Ester Remaining ([1]; 120 min): 7.15%
% Active Ester Remaining ([1]; 240 min): 3.69%
% Active Ester Remaining ([2]; 15 min): 1.13%
% Active Ester Remaining ([2]; 30 min): 0.85%
% Active Ester Remaining ([2]; 60 min): 0.67%
% Active Ester Remaining ([2]; 120 min): 0.49%
% Active Ester Remaining ([2]; 240 min): 0.35%
% Active Ester Remaining ([3]; 15 min): 32.07%
% Active Ester Remaining ([3]; 30 min): 20.77%
% Active Ester Remaining ([3]; 60 min): 11.58%
% Active Ester Remaining ([3]; 120 min): 6.52%
% Active Ester Remaining ([3]; 240 min): 4.21%
% Active Ester Remaining ([4]; 15 min): 0%
% Remaining (pH stability study; pH 3 buffer, 15 min): 80.40%
% Remaining (pH stability study; pH 3 buffer, 30 min): 59.68%
% Remaining (pH stability study; pH 3 buffer, 60 min): 44.51%
% Remaining (pH stability study; pH 3 buffer, 120 min): 26.16%
% Remaining (pH stability study; pH 3 buffer, 240 min): 8.98%
% Remaining (pH stability study; pH 3 buffer, 480 min): 1.00%
% Remaining (pH stability study; pH 5 buffer, 15 min): 85.59%
% Remaining (pH stability study; pH 5 buffer, 30 min): 52.98%
% Remaining (pH stability study; pH 5 buffer, 60 min): 33.12%
% Remaining (pH stability study; pH 5 buffer, 120 min): 13.81%
% Remaining (pH stability study; pH 5 buffer, 240 min): 2.33%
% Remaining (pH stability study; pH 5 buffer, 480 min): 0%
% Remaining (pH stability study; pH 7 buffer, 15 min): 86.24%
% Remaining (pH stability study; pH 7 buffer, 30 min): 44.91%
% Remaining (pH stability study; pH 7 buffer, 60 min): 19.80%
% Remaining (pH stability study; pH 7 buffer, 120 min): 4.02%
% Remaining (pH stability study; pH 7 buffer, 240 min): 0%
% Remaining (pH stability study; pH 9 buffer, 15 min): 6.98%
% Remaining (pH stability study; pH 9 buffer, 30 min): 1.20%
% Remaining (pH stability study; pH 9 buffer, 60 min): 0.74%
% Remaining (pH stability study; pH 9 buffer, 120 min): 0%
% Remaining ([5]; 20° C., 15 min): 87.24%
% Remaining ([5]; 20° C., 30 min): 78.45%
% Remaining ([5]; 20° C., 60 min): 70.03%
% Remaining ([5]; 20° C., 120 min): 54.46%
% Remaining ([5]; 20° C., 240 min): 24.99%
% Remaining ([5]; 20° C., 480 min): 4.50%
% Remaining ([5]; 50° C., 15 min): 72.20%
% Remaining ([5]; 50° C., 30 min): 47.31%
% Remaining ([5]; 50° C., 60 min): 20.75%
% Remaining ([5]; 50° C., 120 min): 3.50%
% Remaining ([5]; 50° C., 240 min): 0.10%
% Remaining ([5]; 50° C., 480 min): 0%
% Active Ester Remaining in DMSO at 22 ± 2° C. (DMSO stability study; 15 min): 97.29%
% Active Ester Remaining in DMSO at 22 ± 2° C. (DMSO stability study; 30 min): 97.13%
% Active Ester Remaining in DMSO at 22 ± 2° C. (DMSO stability study; 60 min): 96.83%
% Active Ester Remaining in DMSO at 22 ± 2° C. (DMSO stability study; 120 min): 94.53%
% Active Ester Remaining in DMSO at 22 ± 2° C. (DMSO stability study; 240 min): 91.57%
Compound: O=C(CCc1cccnc1)ON1C(=O)CCC1=O [Compound E, 2,5-Dioxo-1-pyrrolidinyl 3-pyridinepropanoate]

Compound: CC(=O)N(O)CCCCCNC(=O)CCC(=O)N(O)CCCCCNC(=O)CCC(=O)N(O)CCCCCNC(=O)CCOCCOCCOCCOCCOCCOCCOCCOCCOCCOCCOCCOCCC(=O)Oc1c(Cl)cccc1Cl [Compound J, 2,6-Dichlorophenyl 1-{[5-(N-hydroxy-3-{8 5-(N-hydroxy-3-{[5-(N-hydroxyacetamido)pentyl]carbamoyl}propanamido)pentyl]carbamoyl}propanamido)pentylic carbamoyl}-3,6,9,12,15,18,21,24,27,30,33,36-dodecaoxanonatriacontan-39-oate]
% Compound J Remaining ([6]; 0 min): 97.49%
% Compound J Remaining ([6]; 30 min): 97.21%
% Compound J Remaining ([6]; 60 min): 96.67%
% Compound J Remaining ([6]; 120 min): 96.11%
% Compound J Remaining ([6]; 180 min): 96.14%
% Compound J Remaining ([6]; 240 min): 94.83%
% Compound J Remaining ([6]; 480 min): 94.39%
% Compound J Remaining ([6]; 960 min): 91.48%
